Experimental data as given in patent publication US20250275540A1, “USE OF PROTOPORPHYRINOGEN OXIDASE” (BEIJING DABEINONG BIOTECHNOLOGY CO., LTD., priority 2022, published 2025).

Test system: transgenic soybean plants
Assay: Detection of the herbicide tolerance of the transgenic soybean plants
Format: in vivo
Parameters: key to damage levels rated at grade: grade 0 means that the growth status of plants is essentially consistent with those sprayed with the blank solvent (water); grade 1 means that the average of the damage levels of plants is less than 10%; grade 2 means that the average of the damage levels of plants is greater than 10%; grade 3 means that the average of the damage levels of plants is 100%
Conditions: for The grade of pesticide damage/plant: 0 / The grade of pesticide damage/plant: 1 / The grade of pesticide damage/plant: 2 / The grade of pesticide damage/plant: 3: 7 DAT
[1] = genotype Control vector, 50 g ai/ha
[2] = genotype Control vector, 100 g ai/ha
[3] = genotype PPO-AP-01, 100 g ai/ha
[4] = genotype PPO-EC-01, 100 g ai/ha

CC(C)N(C)S(=O)(=O)NC(=O)c1cc(-n2c(=O)cc(C(F)(F)F)n(C)c2=O)c(F)cc1Cl [saflufenacil, N′-[2-chloro-4-fluoro-5-(3-methyl-2,6-dioxo-4-(trifluoromethyl)-3,6-dihydro-1 (2H)-pyrimidine)benzoyl]-N-isopropyl-N-methylsulfamide]
The grade of pesticide damage/plant: 0 (genotype CK, 50 g ai/ha): 0 plant
The grade of pesticide damage/plant: 1 (genotype CK, 50 g ai/ha): 0 plant
The grade of pesticide damage/plant: 2 (genotype CK, 50 g ai/ha): 0 plant
The grade of pesticide damage/plant: 3 (genotype CK, 50 g ai/ha): 16 plant
The grade of pesticide damage/plant: 0 (genotype CK, 100 g ai/ha): 0 plant
The grade of pesticide damage/plant: 1 (genotype CK, 100 g ai/ha): 0 plant
The grade of pesticide damage/plant: 2 (genotype CK, 100 g ai/ha): 0 plant
The grade of pesticide damage/plant: 3 (genotype CK, 100 g ai/ha): 16 plant
The grade of pesticide damage/plant: 0 [1]: 0 plant
The grade of pesticide damage/plant: 1 [1]: 0 plant
The grade of pesticide damage/plant: 2 [1]: 0 plant
The grade of pesticide damage/plant: 3 [1]: 16 plant
The grade of pesticide damage/plant: 0 [2]: 0 plant
The grade of pesticide damage/plant: 1 [2]: 0 plant
The grade of pesticide damage/plant: 2 [2]: 0 plant
The grade of pesticide damage/plant: 3 [2]: 16 plant
The grade of pesticide damage/plant: 0 (genotype PPO-AP-01, 50 g ai/ha): 0 plant
The grade of pesticide damage/plant: 1 (genotype PPO-AP-01, 50 g ai/ha): 0 plant
The grade of pesticide damage/plant: 2 (genotype PPO-AP-01, 50 g ai/ha): 8 plant
The grade of pesticide damage/plant: 3 (genotype PPO-AP-01, 50 g ai/ha): 8 plant
The grade of pesticide damage/plant: 0 [3]: 0 plant
The grade of pesticide damage/plant: 1 [3]: 0 plant
The grade of pesticide damage/plant: 2 [3]: 0 plant
The grade of pesticide damage/plant: 3 [3]: 16 plant
tolerance to the herbicide (in words) (genotype PPO-AP-01, at different concentrations): basically no tolerance
The grade of pesticide damage/plant: 0 (genotype PPO-EC-01, 50 g ai/ha): 9 plant
The grade of pesticide damage/plant: 1 (genotype PPO-EC-01, 50 g ai/ha): 7 plant
The grade of pesticide damage/plant: 2 (genotype PPO-EC-01, 50 g ai/ha): 0 plant
The grade of pesticide damage/plant: 3 (genotype PPO-EC-01, 50 g ai/ha): 0 plant
The grade of pesticide damage/plant: 0 [4]: 8 plant
The grade of pesticide damage/plant: 1 [4]: 3 plant
The grade of pesticide damage/plant: 2 [4]: 5 plant
The grade of pesticide damage/plant: 3 [4]: 0 plant
share of the plants that exhibited moderate- or poor-resistant tolerance (genotype PPO-EC-01, four-fold field concentration): about 32%
share of the plants rated at grade 1 (genotype PPO-EC-01, two-fold field concentration): about 44%
The grade of pesticide damage/plant: 0 (genotype PPOA-01, 50 g ai/ha): 16 plant
The grade of pesticide damage/plant: 1 (genotype PPOA-01, 50 g ai/ha): 0 plant
The grade of pesticide damage/plant: 2 (genotype PPOA-01, 50 g ai/ha): 0 plant
The grade of pesticide damage/plant: 3 (genotype PPOA-01, 50 g ai/ha): 0 plant
The grade of pesticide damage/plant: 0 (genotype PPOA-01, 100 g ai/ha): 16 plant
The grade of pesticide damage/plant: 1 (genotype PPOA-01, 100 g ai/ha): 0 plant
The grade of pesticide damage/plant: 2 (genotype PPOA-01, 100 g ai/ha): 0 plant
The grade of pesticide damage/plant: 3 (genotype PPOA-01, 100 g ai/ha): 0 plant
The grade of pesticide damage/plant: 0 (genotype PPOB-01, 50 g ai/ha): 16 plant
The grade of pesticide damage/plant: 1 (genotype PPOB-01, 50 g ai/ha): 0 plant
The grade of pesticide damage/plant: 2 (genotype PPOB-01, 50 g ai/ha): 0 plant
The grade of pesticide damage/plant: 3 (genotype PPOB-01, 50 g ai/ha): 0 plant
The grade of pesticide damage/plant: 0 (genotype PPOB-01, 100 g ai/ha): 16 plant
The grade of pesticide damage/plant: 1 (genotype PPOB-01, 100 g ai/ha): 0 plant
The grade of pesticide damage/plant: 2 (genotype PPOB-01, 100 g ai/ha): 0 plant
The grade of pesticide damage/plant: 3 (genotype PPOB-01, 100 g ai/ha): 0 plant
The grade of pesticide damage/plant: 0 (genotype PPOC-01, 50 g ai/ha): 16 plant
The grade of pesticide damage/plant: 1 (genotype PPOC-01, 50 g ai/ha): 0 plant
The grade of pesticide damage/plant: 2 (genotype PPOC-01, 50 g ai/ha): 0 plant
The grade of pesticide damage/plant: 3 (genotype PPOC-01, 50 g ai/ha): 0 plant
The grade of pesticide damage/plant: 0 (genotype PPOC-01, 100 g ai/ha): 16 plant
The grade of pesticide damage/plant: 1 (genotype PPOC-01, 100 g ai/ha): 0 plant
The grade of pesticide damage/plant: 2 (genotype PPOC-01, 100 g ai/ha): 0 plant
The grade of pesticide damage/plant: 3 (genotype PPOC-01, 100 g ai/ha): 0 plant
The grade of pesticide damage/plant: 0 (genotype PPOD-01, 50 g ai/ha): 16 plant
The grade of pesticide damage/plant: 1 (genotype PPOD-01, 50 g ai/ha): 0 plant
The grade of pesticide damage/plant: 2 (genotype PPOD-01, 50 g ai/ha): 0 plant
The grade of pesticide damage/plant: 3 (genotype PPOD-01, 50 g ai/ha): 0 plant
The grade of pesticide damage/plant: 0 (genotype PPOD-01, 100 g ai/ha): 16 plant
The grade of pesticide damage/plant: 1 (genotype PPOD-01, 100 g ai/ha): 0 plant
The grade of pesticide damage/plant: 2 (genotype PPOD-01, 100 g ai/ha): 0 plant
The grade of pesticide damage/plant: 3 (genotype PPOD-01, 100 g ai/ha): 0 plant
The grade of pesticide damage/plant: 0 (genotype PPOE-01, 50 g ai/ha): 16 plant
The grade of pesticide damage/plant: 1 (genotype PPOE-01, 50 g ai/ha): 0 plant
The grade of pesticide damage/plant: 2 (genotype PPOE-01, 50 g ai/ha): 0 plant
The grade of pesticide damage/plant: 3 (genotype PPOE-01, 50 g ai/ha): 0 plant
The grade of pesticide damage/plant: 0 (genotype PPOE-01, 100 g ai/ha): 15 plant
The grade of pesticide damage/plant: 1 (genotype PPOE-01, 100 g ai/ha): 1 plant
The grade of pesticide damage/plant: 2 (genotype PPOE-01, 100 g ai/ha): 0 plant
The grade of pesticide damage/plant: 3 (genotype PPOE-01, 100 g ai/ha): 0 plant
The grade of pesticide damage/plant: 0 (genotype PPOF-01, 50 g ai/ha): 16 plant
The grade of pesticide damage/plant: 1 (genotype PPOF-01, 50 g ai/ha): 0 plant
The grade of pesticide damage/plant: 2 (genotype PPOF-01, 50 g ai/ha): 0 plant
The grade of pesticide damage/plant: 3 (genotype PPOF-01, 50 g ai/ha): 0 plant
The grade of pesticide damage/plant: 0 (genotype PPOF-01, 100 g ai/ha): 16 plant
The grade of pesticide damage/plant: 1 (genotype PPOF-01, 100 g ai/ha): 0 plant
The grade of pesticide damage/plant: 2 (genotype PPOF-01, 100 g ai/ha): 0 plant
The grade of pesticide damage/plant: 3 (genotype PPOF-01, 100 g ai/ha): 0 plant
tolerance to the herbicide (in words) (genotypes PPOA-01 to PPOF-01, four-fold field concentration): high-resistant tolerance
damage levels rated at grade (genotypes PPOA-01 to PPOF-01, two-fold field concentration): 0
tolerance to the herbicide (in words) (genotypes PPOA-01 to PPOF-01 and PPO-EC-01, compared with the control vector and CK): different extents of tolerance
